Source: ChEMBL document CHEMBL1914391, “Design and synthesis of biotinylated inositol 1,3,4,5-tetrakisphosphate targeting Grp1 pleckstrin homology domain” (Bioorg Med Chem, 2011)
pKd: −log10 of the molar value.

Columns and labels:
Cytohesin-3 [1] = target: T1, Cytohesin-3 (Rattus norvegicus, UniProt P97696); assay: Binding affinity to recombinant rat brain Grp1 PH domain (amino acids 1 to 120) after 10 mins by pull-down assay
T1 sequence (P97696 whole entry): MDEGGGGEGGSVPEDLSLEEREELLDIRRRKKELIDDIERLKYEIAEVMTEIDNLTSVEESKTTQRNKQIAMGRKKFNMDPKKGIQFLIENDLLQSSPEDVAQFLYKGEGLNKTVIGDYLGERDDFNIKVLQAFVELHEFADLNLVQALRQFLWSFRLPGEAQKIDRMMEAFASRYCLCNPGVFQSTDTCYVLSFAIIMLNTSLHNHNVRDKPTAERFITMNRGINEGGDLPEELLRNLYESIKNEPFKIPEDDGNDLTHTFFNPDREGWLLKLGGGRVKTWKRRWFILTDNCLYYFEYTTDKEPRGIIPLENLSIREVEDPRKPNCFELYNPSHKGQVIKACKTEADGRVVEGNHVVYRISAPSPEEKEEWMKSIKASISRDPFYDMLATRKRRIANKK

[2] = target: T2, 1-phosphatidylinositol 4,5-bisphosphate phosphodiesterase delta-1 (Homo sapiens, UniProt P51178); assay: Binding affinity to PLCdelta1 PH domain
T2 sequence (P51178 whole entry): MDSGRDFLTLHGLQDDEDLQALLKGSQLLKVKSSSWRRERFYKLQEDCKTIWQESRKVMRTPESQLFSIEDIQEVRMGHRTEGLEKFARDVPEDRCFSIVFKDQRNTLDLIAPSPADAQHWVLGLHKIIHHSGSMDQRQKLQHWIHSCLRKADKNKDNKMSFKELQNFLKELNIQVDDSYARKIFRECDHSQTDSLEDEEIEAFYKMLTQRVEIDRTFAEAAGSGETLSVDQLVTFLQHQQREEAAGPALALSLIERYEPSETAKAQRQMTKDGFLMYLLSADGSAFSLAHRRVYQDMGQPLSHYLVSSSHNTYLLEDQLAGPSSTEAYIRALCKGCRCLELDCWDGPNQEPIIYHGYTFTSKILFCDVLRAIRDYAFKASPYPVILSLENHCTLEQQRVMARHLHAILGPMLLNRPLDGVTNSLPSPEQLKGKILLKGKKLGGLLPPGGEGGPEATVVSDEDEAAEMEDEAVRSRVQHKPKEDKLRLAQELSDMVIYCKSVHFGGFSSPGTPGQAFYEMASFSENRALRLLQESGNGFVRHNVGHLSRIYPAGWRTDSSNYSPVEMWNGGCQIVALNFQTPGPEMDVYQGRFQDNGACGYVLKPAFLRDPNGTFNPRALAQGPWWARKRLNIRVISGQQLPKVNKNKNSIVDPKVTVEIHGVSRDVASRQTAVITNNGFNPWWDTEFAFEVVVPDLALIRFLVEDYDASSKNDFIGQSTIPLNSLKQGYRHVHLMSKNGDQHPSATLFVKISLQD

[3] = target: T3, 1-phosphatidylinositol 4,5-bisphosphate phosphodiesterase delta-1 (Rattus norvegicus, UniProt P10688); assay: Binding affinity to recombinant rat brain PLCdelta1 PH domain (amino acids 11 to 140) by SPR analysis
T3 sequence (P10688 whole entry): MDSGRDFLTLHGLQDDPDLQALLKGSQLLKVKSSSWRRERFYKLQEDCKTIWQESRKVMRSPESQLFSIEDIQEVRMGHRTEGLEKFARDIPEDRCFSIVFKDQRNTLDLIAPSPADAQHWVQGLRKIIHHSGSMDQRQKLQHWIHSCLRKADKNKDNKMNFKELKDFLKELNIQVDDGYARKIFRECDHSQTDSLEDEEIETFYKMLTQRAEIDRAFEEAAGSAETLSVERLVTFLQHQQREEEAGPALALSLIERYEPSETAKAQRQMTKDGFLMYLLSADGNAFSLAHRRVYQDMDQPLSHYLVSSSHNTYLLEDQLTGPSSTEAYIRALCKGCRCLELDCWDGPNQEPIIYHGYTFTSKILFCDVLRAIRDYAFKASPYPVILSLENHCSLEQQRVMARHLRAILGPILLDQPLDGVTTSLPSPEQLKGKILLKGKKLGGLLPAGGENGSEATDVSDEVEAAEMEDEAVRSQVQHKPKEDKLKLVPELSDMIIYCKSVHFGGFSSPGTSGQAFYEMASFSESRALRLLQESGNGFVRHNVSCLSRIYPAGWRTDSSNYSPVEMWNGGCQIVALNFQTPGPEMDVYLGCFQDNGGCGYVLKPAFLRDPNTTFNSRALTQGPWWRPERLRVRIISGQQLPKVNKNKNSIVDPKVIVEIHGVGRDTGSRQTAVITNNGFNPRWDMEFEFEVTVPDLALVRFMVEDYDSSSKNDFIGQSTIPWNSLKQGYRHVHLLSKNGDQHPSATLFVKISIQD

Cytohesin-3 [4] = target: T1, Cytohesin-3; assay: Binding affinity to recombinant rat brain Grp1 PH domain (amino acids 1 to 120) by SPR analysis

pKd (Cytohesin-3 [1])	pKd [2]	pKd [3]	pKd (Cytohesin-3 [4])	Compound
6.85	6.60	< 5.30	6.52	O=C(CCCC[C@@H]1SC[C@@H]2NC(=O)N[C@@H]21)NCCCCCCOP(=O)(O)O[C@H]1[C@H](O)[C@@H](OP(=O)(O)O)[C@H](OP(=O)(O)O)[C@@H](OP(=O)(O)O)[C@H]1O
–	–	5.66	< 6.00	O=C(CCCC[C@@H]1SC[C@@H]2NC(=O)N[C@@H]21)NCCCCCCOP(=O)(O)O[C@@H]1[C@H](O)[C@H](O)[C@@H](OP(=O)(O)O)[C@H](OP(=O)(O)O)[C@H]1O
–	–	< 5.30	< 6.00	O=C(CCCC[C@@H]1SC[C@@H]2NC(=O)N[C@@H]21)NCCCCCCOP(=O)(O)O[C@@H]1[C@@H](O)[C@H](OP(=O)(O)O)[C@@H](OP(=O)(O)O)[C@H](O)[C@@H]1O
7.00	–	–	–	O=P(O)(O)O[C@H]1[C@H](O)[C@@H](OP(=O)(O)O)[C@H](OP(=O)(O)O)[C@@H](OP(=O)(O)O)[C@H]1O
